Key:
Leukotriene C4 synthase = molecular target: T1, Leukotriene C4 synthase (Cavia porcellus, UniProt A6XA80); assay: biochemical; assay type: tissue-based, Lung;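 also: enzyme inhibition assay of leukotriene C4 synthase, using LTA4 as the substrate; in other assays of this panel Not Active means under 50% inhibition at 10 µM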
T1 sequence (A6XA80 whole entry): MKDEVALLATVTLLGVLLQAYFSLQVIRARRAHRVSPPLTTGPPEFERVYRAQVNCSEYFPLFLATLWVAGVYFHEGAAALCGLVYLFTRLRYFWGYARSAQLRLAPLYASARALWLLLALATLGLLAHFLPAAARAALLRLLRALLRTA

[1] = molecular target: C-C chemokine receptor type 2 (Homo sapiens, UniProt P41597); assay type: cell membranes, CHO-K1, Membrane; details: cho-k1; also: in other assays of this panel Not Active means under 50% inhibition at 10 µM
[2] = DRUGMATRIX: Atrial Natriuretic Factor (ANF) radioligand binding (ligand: [125I] ANF (rat)); assay type: cell membranes, Cavia porcellus, Dunkin-Hartley, Adrenal gland, Membrane; details: Not Active = under 50% inhibition at 10 µM
[3] = molecular target: T2, Alpha-2C adrenergic receptor (Homo sapiens, UniProt P18825); assay: DRUGMATRIX: Adrenergic Alpha-2C radioligand binding (ligand: [3H] MK-912); assay type: cell membranes, Sf9, Membrane; details: sf9
T2 sequence (P18825 whole entry): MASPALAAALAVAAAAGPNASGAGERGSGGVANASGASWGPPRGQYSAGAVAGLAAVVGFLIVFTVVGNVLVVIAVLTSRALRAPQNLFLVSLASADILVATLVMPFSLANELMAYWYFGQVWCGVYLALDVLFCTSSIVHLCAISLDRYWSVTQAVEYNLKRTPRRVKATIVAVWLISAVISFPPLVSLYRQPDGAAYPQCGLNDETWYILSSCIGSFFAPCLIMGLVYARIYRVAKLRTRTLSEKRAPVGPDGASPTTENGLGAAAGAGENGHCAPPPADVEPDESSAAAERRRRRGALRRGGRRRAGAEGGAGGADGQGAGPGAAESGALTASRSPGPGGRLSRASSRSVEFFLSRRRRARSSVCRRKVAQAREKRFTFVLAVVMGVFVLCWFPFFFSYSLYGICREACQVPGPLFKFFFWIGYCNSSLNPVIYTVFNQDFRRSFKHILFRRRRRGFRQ

[4] = molecular target: Voltage-gated inwardly rectifying potassium channel KCNH2 (Homo sapiens, UniProt Q12809); details: hek293; also: in other assays of this panel Not Active means under 50% inhibition at 10 µM
[5] = DRUGMATRIX: Serotonin (5-Hydroxytryptamine) 5-HT3 radioligand binding (ligand: [3H] GR-65630); assay type: cell membranes, Membrane; details: hek293; Not Active = under 50% inhibition at 10 µM
[6] = DRUGMATRIX: beta-Lactamase enzyme inhibition (substrate: Nitrocefin); parameters: species or system Bacillus cereus; details: Not Active = under 50% inhibition at 10 µM
[7] = molecular target: T3, 5-hydroxytryptamine receptor 1A (Rattus norvegicus, UniProt P19327); assay type: cell membranes, CHO-K1, Membrane; details: cho-k1; also: in other assays of this panel Not Active means under 50% inhibition at 10 µM
T3 sequence (P19327 whole entry): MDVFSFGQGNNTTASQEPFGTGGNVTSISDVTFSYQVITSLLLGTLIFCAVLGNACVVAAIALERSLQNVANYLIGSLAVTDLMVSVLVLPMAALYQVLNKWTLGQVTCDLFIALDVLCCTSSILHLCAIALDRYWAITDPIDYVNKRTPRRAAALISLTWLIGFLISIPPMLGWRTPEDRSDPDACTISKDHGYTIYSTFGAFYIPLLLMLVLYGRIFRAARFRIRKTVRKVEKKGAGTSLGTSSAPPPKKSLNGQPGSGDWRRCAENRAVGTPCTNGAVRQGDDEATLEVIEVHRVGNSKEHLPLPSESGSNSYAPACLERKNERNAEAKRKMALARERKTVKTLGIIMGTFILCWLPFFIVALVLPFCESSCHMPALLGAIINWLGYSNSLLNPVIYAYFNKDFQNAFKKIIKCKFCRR

[8] = DRUGMATRIX: GABAA, Chloride Channel, TBOB radioligand binding (ligand: [3H] TBOB); assay type: cell membranes, Rattus norvegicus, Wistar, Cerebral cortex, Membrane; details: Not Active = under 50% inhibition at 10 µM
Cytochrome P450 3A4 = Cytochrome P450 3A4 (Homo sapiens, UniProt P08684); details: bti-tn-5b1-4; also: in other assays of this panel Not Active means under 50% inhibition at 10 µM
Vasopressin V1a receptor = Vasopressin V1a receptor (Homo sapiens, UniProt P37288); assay type: cell membranes, Membrane; details: hek293; also: in other assays of this panel Not Active means under 50% inhibition at 10 µM
[9] = DRUGMATRIX: Calcium Channel Type L, Benzothiazepine radioligand binding (ligand: [3H] Diltiazem); assay type: cell membranes, Rattus norvegicus, Wistar, Brain, Membrane; details: Not Active = under 50% inhibition at 10 µM
Acetylcholinesterase = Acetylcholinesterase (Homo sapiens, UniProt P22303); assay: DRUGMATRIX: Acetylcholinesterase enzyme inhibition (substrate: acetylthiocholine); assay type: cell-based, HEK293; details: hek293; Not Active = under 50% inhibition at 10 µM
[10] = DRUGMATRIX: Calcium Channel Type L, Dihydropyridine radioligand binding (ligand: [3H] Nitrendipine); assay type: cell membranes, Rattus norvegicus, Wistar, Cerebral cortex, Membrane; details: Not Active = under 50% inhibition at 10 µM
[11] = molecular target: T4, Alpha-1B adrenergic receptor (Rattus norvegicus, UniProt P15823); assay: DRUGMATRIX: Alpha-1B adrenergic receptor radioligand binding (ligand: prazosin); assay type: cell membranes, Wistar, Liver, Membrane; details: Not Active = under 50% inhibition at 10 µM
T4 sequence (P15823 whole entry): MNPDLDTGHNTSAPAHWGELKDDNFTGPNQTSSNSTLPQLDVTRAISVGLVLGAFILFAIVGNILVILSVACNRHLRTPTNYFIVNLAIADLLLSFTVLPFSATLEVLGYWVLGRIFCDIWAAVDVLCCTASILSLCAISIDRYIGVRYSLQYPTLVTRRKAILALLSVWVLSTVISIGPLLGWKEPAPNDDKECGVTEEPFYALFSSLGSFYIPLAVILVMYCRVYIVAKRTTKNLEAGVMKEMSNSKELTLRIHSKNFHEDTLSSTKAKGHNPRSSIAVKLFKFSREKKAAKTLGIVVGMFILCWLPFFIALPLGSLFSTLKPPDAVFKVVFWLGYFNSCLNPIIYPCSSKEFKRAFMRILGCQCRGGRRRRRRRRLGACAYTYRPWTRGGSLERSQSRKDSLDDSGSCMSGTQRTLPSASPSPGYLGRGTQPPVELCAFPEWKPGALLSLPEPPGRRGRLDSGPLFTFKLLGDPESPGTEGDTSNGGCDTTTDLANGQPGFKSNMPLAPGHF

[12] = molecular target: cGMP-specific 3',5'-cyclic phosphodiesterase (Homo sapiens, UniProt O76074); assay: DRUGMATRIX: Phosphodiesterase PDE5 enzyme inhibition (substrate: [3H]cGMP + cGMP); assay type: tissue-based, Platelet; details: Not Active = under 50% inhibition at 10 µM

Sequence of Vasopressin V1a receptor (P37288 whole entry): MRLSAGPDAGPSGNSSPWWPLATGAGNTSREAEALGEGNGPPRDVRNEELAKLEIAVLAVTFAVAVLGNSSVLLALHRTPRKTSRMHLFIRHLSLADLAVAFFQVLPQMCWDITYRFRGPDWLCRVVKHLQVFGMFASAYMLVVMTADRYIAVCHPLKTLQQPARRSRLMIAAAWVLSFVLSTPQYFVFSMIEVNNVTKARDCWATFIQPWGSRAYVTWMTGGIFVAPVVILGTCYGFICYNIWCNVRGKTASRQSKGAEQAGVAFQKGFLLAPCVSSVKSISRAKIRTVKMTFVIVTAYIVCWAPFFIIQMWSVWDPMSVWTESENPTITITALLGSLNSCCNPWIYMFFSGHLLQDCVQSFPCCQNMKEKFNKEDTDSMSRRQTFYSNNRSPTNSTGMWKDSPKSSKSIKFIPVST
Sequence of Voltage-gated inwardly rectifying potassium channel KCNH2 (Q12809 whole entry): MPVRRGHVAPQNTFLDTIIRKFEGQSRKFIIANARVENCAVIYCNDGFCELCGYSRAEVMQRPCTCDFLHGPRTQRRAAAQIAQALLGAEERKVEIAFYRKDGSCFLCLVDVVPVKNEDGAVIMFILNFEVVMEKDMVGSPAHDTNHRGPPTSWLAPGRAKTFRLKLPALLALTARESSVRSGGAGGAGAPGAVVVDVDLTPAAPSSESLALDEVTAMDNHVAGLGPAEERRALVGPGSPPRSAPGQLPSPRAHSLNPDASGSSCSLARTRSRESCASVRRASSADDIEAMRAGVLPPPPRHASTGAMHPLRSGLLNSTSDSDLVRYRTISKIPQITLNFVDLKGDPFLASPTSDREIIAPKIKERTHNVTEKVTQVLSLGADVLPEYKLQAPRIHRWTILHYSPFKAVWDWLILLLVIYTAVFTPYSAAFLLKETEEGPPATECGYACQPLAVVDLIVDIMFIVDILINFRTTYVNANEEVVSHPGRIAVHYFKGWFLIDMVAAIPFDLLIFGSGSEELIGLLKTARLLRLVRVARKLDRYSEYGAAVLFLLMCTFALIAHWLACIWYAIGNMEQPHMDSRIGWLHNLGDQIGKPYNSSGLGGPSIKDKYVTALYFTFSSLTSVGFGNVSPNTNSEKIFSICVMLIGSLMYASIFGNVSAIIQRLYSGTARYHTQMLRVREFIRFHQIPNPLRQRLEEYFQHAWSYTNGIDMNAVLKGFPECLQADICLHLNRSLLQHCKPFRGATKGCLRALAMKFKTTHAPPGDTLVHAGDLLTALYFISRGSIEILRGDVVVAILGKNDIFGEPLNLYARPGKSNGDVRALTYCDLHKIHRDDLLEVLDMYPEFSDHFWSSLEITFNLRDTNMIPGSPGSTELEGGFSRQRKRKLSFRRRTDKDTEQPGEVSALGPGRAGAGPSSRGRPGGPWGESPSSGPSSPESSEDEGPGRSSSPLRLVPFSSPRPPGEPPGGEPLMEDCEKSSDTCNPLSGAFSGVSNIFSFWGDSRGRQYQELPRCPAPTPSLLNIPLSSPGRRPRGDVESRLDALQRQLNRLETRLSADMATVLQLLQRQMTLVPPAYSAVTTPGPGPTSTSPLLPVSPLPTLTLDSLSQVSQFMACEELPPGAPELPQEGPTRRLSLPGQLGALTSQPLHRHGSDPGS
Sequence of Acetylcholinesterase (P22303 whole entry): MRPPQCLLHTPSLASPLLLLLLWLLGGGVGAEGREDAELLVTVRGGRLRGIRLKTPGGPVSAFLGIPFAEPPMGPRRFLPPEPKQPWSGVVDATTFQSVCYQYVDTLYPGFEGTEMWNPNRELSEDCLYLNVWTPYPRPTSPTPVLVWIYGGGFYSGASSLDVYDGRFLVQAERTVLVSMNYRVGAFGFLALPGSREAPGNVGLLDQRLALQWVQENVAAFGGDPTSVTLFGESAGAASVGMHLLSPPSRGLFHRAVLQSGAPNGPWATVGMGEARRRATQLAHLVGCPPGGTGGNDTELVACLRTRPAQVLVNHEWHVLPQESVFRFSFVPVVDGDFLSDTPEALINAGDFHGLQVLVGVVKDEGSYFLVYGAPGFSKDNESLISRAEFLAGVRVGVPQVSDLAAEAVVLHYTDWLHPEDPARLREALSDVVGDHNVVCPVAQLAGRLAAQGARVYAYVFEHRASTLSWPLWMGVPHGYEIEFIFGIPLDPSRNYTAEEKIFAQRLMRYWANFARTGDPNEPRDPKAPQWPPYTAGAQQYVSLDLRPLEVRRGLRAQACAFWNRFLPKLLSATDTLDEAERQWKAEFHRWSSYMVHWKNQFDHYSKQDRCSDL
Sequence of Cytochrome P450 3A4 (P08684 whole entry): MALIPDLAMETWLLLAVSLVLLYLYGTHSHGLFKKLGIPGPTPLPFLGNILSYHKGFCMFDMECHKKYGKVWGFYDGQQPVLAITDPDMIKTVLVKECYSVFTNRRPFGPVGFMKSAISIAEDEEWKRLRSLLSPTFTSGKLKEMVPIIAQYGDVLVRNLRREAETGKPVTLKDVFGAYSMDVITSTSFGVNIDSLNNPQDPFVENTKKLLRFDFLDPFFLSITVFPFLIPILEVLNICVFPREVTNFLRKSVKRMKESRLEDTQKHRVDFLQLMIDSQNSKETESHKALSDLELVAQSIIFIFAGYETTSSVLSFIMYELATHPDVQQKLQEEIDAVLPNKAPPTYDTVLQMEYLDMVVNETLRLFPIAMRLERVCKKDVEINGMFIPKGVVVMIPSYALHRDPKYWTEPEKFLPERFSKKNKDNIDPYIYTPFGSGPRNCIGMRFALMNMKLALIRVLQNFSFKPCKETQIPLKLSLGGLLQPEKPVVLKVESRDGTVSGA
Sequence of C-C chemokine receptor type 2 (P41597 whole entry): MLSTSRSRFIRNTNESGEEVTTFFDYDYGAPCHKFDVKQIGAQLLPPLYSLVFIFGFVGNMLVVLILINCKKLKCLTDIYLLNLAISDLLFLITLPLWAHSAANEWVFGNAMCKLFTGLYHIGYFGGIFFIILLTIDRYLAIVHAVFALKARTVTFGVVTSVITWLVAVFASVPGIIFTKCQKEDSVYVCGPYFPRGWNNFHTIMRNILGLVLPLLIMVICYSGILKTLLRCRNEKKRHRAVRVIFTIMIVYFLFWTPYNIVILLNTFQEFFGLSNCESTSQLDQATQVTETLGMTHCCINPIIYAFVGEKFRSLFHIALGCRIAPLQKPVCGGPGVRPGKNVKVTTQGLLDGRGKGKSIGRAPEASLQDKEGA

## CC1=Nc2ccc(Cl)cc2S(=O)(=O)N1 [DIAZOXIDE]
Leukotriene C4 synthase
  IC50: Not Active
[1]
  IC50: Not Active
[2]
  IC50: Not Active
  Ki: Not Active
[3]
  IC50: Not Active
[4]
  IC50: Not Active
  Ki: Not Active
[5]
  IC50: Not Active
  Ki: Not Active
[6]
  IC50: Not Active
  Ki: Not Active
[7]
  IC50: Not Active
[8]
  IC50: Not Active
  Ki: Not Active
Cytochrome P450 3A4
  IC50: Not Active
  Ki: Not Active
Vasopressin V1a receptor
  IC50: Not Active
[9]
  IC50: Not Active
  Ki: Not Active
Acetylcholinesterase
  IC50: Not Active
[10]
  IC50: Not Active
  Ki: Not Active
[11]
  IC50: Not Active
[12]; platelet
  IC50: Not Active

## O=c1cc(-c2ccccc2)oc2c1ccc1ccccc12 [ALPHA-NAPHTHOFLAVONE]
Leukotriene C4 synthase
  IC50: Not Active
[1]
  IC50: Not Active
[2]
  IC50: Not Active
  Ki: Not Active
[3]
  IC50: Not Active
[4]
  IC50: Not Active
  Ki: Not Active
[5]
  IC50: Not Active
  Ki: Not Active
[6]
  IC50: Not Active
  Ki: Not Active
[7]
  IC50: Not Active
[8]
  IC50: Not Active
  Ki: Not Active
Cytochrome P450 3A4
  IC50: Not Active
  Ki: Not Active
Vasopressin V1a receptor
  IC50: Not Active
[9]
  IC50: Not Active
  Ki: Not Active
Acetylcholinesterase
  IC50: Not Active
[10]
  IC50: Not Active
  Ki: Not Active
[11]
  IC50: Not Active
[12]; read-out: IC50
  IC50: 2300 nM

## C=C1[C@@H]2CCC3[C@@](CC[C@@H]4[C@H](C(=O)O)C[C@@H](O[C@@H]5O[C@H](CO)[C@@H](OS(=O)(=O)[O-])[C@H](OS(=O)(=O)[O-])[C@H]5OC(=O)CC(C)C)C[C@@]34C)(C2)[C@@H]1O.[K+].[K+] (stereo partly drawn) [ATRACTYLOSIDE]
Leukotriene C4 synthase
  IC50: Not Active
[1]
  IC50: Not Active
[2]
  IC50: Not Active
  Ki: Not Active
[3]
  IC50: Not Active
[4]
  IC50: Not Active
  Ki: Not Active
[5]
  IC50: Not Active
  Ki: Not Active
[6]
  IC50: Not Active
  Ki: Not Active
[7]
  IC50: Not Active
[8]
  IC50: Not Active
  Ki: Not Active
Cytochrome P450 3A4
  IC50: Not Active
  Ki: Not Active
Vasopressin V1a receptor
  IC50: Not Active
[9]
  IC50: Not Active
  Ki: Not Active
Acetylcholinesterase
  IC50: Not Active
[10]
  IC50: Not Active
  Ki: Not Active
[11]
  IC50: Not Active
[12]; platelet
  IC50: Not Active

## NS(=O)(=O)c1cc2c(cc1Cl)NCNS2(=O)=O [HYDROCHLOROTHIAZIDE]
Leukotriene C4 synthase
  IC50: Not Active
[1]
  IC50: Not Active
[2]
  IC50: Not Active
  Ki: Not Active
[3]
  IC50: Not Active
[4]
  IC50: Not Active
  Ki: Not Active
[5]
  IC50: Not Active
  Ki: Not Active
[6]
  IC50: Not Active
  Ki: Not Active
[7]
  IC50: Not Active
[8]
  IC50: Not Active
  Ki: Not Active
Cytochrome P450 3A4
  IC50: Not Active
  Ki: Not Active
Vasopressin V1a receptor
  IC50: Not Active
[9]
  IC50: Not Active
  Ki: Not Active
Acetylcholinesterase
  IC50: Not Active
[10]
  IC50: Not Active
  Ki: Not Active
[11]
  IC50: Not Active
[12]; platelet
  IC50: Not Active

## COc1c(N2CCNC(C)C2)c(F)cc2c(=O)c(C(=O)O)cn(C3CC3)c12 (stereo not drawn) [GATIFLOXACIN]
Leukotriene C4 synthase
  IC50: Not Active
[1]
  IC50: Not Active
[2]
  IC50: Not Active
  Ki: Not Active
[3]
  IC50: Not Active
[4]
  IC50: Not Active
  Ki: Not Active
[5]
  IC50: Not Active
  Ki: Not Active
[6]
  IC50: Not Active
  Ki: Not Active
[7]
  IC50: Not Active
[8]
  IC50: Not Active
  Ki: Not Active
Cytochrome P450 3A4
  IC50: Not Active
  Ki: Not Active
Vasopressin V1a receptor
  IC50: Not Active
[9]
  IC50: Not Active
  Ki: Not Active
Acetylcholinesterase
  IC50: Not Active
[10]
  IC50: Not Active
  Ki: Not Active
[11]
  IC50: Not Active
[12]; platelet
  IC50: Not Active

## CC[N+](CC)(CC)CCOc1cccc(OCC[N+](CC)(CC)CC)c1OCC[N+](CC)(CC)CC.[I-].[I-].[I-] [GALLAMINE TRIETHIODIDE]
Leukotriene C4 synthase
  IC50: Not Active
[1]
  IC50: Not Active
[2]
  IC50: Not Active
  Ki: Not Active
[3]
  IC50: Not Active
[4]
  IC50: Not Active
  Ki: Not Active
[5]
  IC50: Not Active
  Ki: Not Active
[6]
  IC50: Not Active
  Ki: Not Active
[7]
  IC50: Not Active
[8]
  IC50: Not Active
  Ki: Not Active
Cytochrome P450 3A4
  IC50: Not Active
  Ki: Not Active
Vasopressin V1a receptor
  IC50: Not Active
[9]
  IC50: Not Active
  Ki: Not Active
Acetylcholinesterase
  IC50: Not Active
[10]
  IC50: Not Active
  Ki: Not Active
[11]
  IC50: Not Active
[12]; platelet
  IC50: Not Active

## Nc1nc(=O)[nH]cc1F [FLUCYTOSINE]
Leukotriene C4 synthase
  IC50: Not Active
[1]
  IC50: Not Active
[2]
  IC50: Not Active
  Ki: Not Active
[3]
  IC50: Not Active
[4]
  IC50: Not Active
  Ki: Not Active
[5]
  IC50: Not Active
  Ki: Not Active
[6]
  IC50: Not Active
  Ki: Not Active
[7]
  IC50: Not Active
[8]
  IC50: Not Active
  Ki: Not Active
Cytochrome P450 3A4
  IC50: Not Active
  Ki: Not Active
Vasopressin V1a receptor
  IC50: Not Active
[9]
  IC50: Not Active
  Ki: Not Active
Acetylcholinesterase
  IC50: Not Active
[10]
  IC50: Not Active
  Ki: Not Active
[11]
  IC50: Not Active
[12]; platelet
  IC50: Not Active

Source: ChEMBL document CHEMBL1909046, “DrugMatrix in vitro pharmacology data”
